Results: patent US20100055093A1, “PAN-CELL SURFACE RECEPTOR-SPECIFIC THERAPEUTICS” (RECEPTOR BIOLOGIX INC., priority 2006, published 2010)
Entries after “also recorded” stand apart in the source; their conditions may differ. Marks after values point to notes of the source that are not given here. One block for each molecule: values may come before it.

How the values were obtained:
A431 s.c. tumor = assay: Therapeutic evaluation in A431 s.c. human tumor xenograft model; format: in vivo, nude mice
Experimental: Mice were obtained from the commercial suppliers (Harlan, UK). The mice were 4-6 weeks old at the start of the study. […] The room was air-conditioned by a system designed to maintain an air temperature range of 23±2° C. Mice were housed in groups of 2 or 5 during the procedure in plastic cages (Techniplast UK) with irradiated bedding and provided with both nesting materials and environmental enrichment. […] Tumor dimensions were recorded (calliper measurement of length and width and tumor cross-sectional area and volume calculated) three times weekly and body weight measured weekly. Each mouse remained in the study until terminated, or until necessitate removal of that mouse from the study. Animals were terminated if the tumor size becomes excessive or any adverse effects are noted. At termination the mice were anaesthetized (Hypnorm/Hynovel) and 1 ml blood removed by cardiac puncture, processed for plasma, frozen for both the pilot and therapeutic study. The mice were then terminated by an approved S1 method. For the therapeutic study, the tumors were excised, weighed, measured and fixed in formalin. Body weight data, tumor growth and final tumor weight were recorded and reported in spreadsheet and graphical format. Statistical analysis was performed if appropriate using Minitab. […] An extra group for the therapeutic study was added by PRECOS as below. Group 9: 30 mg/kg human IgG i.p. 3 times weekly. Iressa was prepared by PRECOS in 10% DMSO & 5% Cremaphor in PBS. Tumors were initiated with 2×10^6 cells per mouse for the therapeutic study.

A431 tumor bearing mice = assay: Pilot toxicity study in A431 tumor bearing mice; format: in vivo, nude mice
Experimental: Mice were obtained from the commercial suppliers (Harlan, UK). The mice were 4-6 weeks old at the start of the study. […] The room was air-conditioned by a system designed to maintain an air temperature range of 23±2° C. Mice were housed in groups of 2 or 5 during the procedure in plastic cages (Techniplast UK) with irradiated bedding and provided with both nesting materials and environmental enrichment.
Cells were injected subcutaneously into mice at 1×10^7 cells in a volume of 100 μl.
For the pilot toxicity study, mice were allocated to their treatment groups and treatment began on day 5 for 2 weeks in a dosing volume of 150 μl per injection. […] Tumor dimensions were recorded (calliper measurement of length and width and tumor cross-sectional area and volume calculated) three times weekly and body weight measured weekly.
Each mouse remained in the study until terminated, or until necessitate removal of that mouse from the study. Animals were terminated if the tumor size becomes excessive or any adverse effects are noted. At termination the mice were anaesthetized (Hypnorm/Hynovel) and ˜1 ml blood removed by cardiac puncture, processed for plasma, frozen for both the pilot and therapeutic study. The mice were then terminated by an approved S1 method.
Pilot toxicity study was terminated after 12 days of dosing in order to collect plasma samples 3 hours after dosing. […]

HER2 = molecular target: T1, HER2 (Homo sapiens, UniProt P04626); assay: ELISA-based HER receptor phosphorylation assay, HER2; format: cell-based; conditions: MCF7/HER2 cells, HRG, 600 nM protein
T1 construct: endogenous in cells
Experimental: (§1) Phosphorylation of HER receptors was assessed in an ELISA-based HER Receptor phosphorylation assay. Various cells (A431, MCF7, SK-BR3, SK-OV3, MCF7/HER2) were serum-starved in serum free medium for about 24 hr.
(§2) Cells were lysed on ice for 15 min and cell lysate were applied to a 96-well plate pre-coated with the respective receptor-specific capture antibodies (antibodies were purchased from R & D System) by manufacture recommended concentrations (0.4 to 4 ug/ml) and condition (in PBS, room temperature, overnight). Cell lysates were incubated with the capture Ab plate for 3 hrs at room temperature. Plates were washed 3× with PBST buffer. Anti-phosphotyrosine antibody clone 4G10 HRP-conjugated (Upstate) were diluted at 1:1000 in 1% of BSA.PBS and added to the plates, 100 μl/well for 1 hr to detect specifically HER receptors phosphorylated on tyrosine. After 3× PBST wash, the plates were developed by adding 100 μl of substrate solution (TMB, Sigma) and stopped by 50 μl of SDS stop solution. The optical density was determined by microplate reader at 650 nm (Molecular Devices, VERSAmax).

HER3 = molecular target: T2, HER3 (Homo sapiens, UniProt P21860); assay: ELISA-based HER receptor phosphorylation assay, HER3; format: cell-based; conditions: HRG; for maximal inhibition of HER3 phosphorylation: 600 nM protein; for IC50: read-out: IC50, inhibition of HER3 phosphorylation
T2 construct: endogenous in cells
Experimental: as §1, §2

heregulin (HRG) = assay: 125I-HRG binding with BS3 cross-linking and SDS-PAGE; conditions: for binding of 125I-HRG: 5 nM 125I-HRG, BS3 cross-linking, SDS-PAGE
Experimental: 1 mM of the BS3 crosslinker was added at the end of the binding assay to cross-link the bound molecules. Binding reactions were separated on an SDS-PAGE gel.
(§3) Western blots were probed with anti-His antibody to compare protein levels.

MCF7 cells = assay: Ligand-stimulated cell proliferation, Alamar Blue; format: cell-based; conditions: MCF7 stimulated by HRGβ, at 1 μm
Experimental: Cell lines MCF7, ZR75-1, ME180 were purchased from ATCC and kept in 10% of FBS DMEM. Cells were seeded at 2000 per well in 96-well plate in 1% FBS supplemented DMEM. After 2-3 hr of seeding, increasing concentrations of candidate HER ECD derivatives were added to the culture in the present of ligands (EGF or HRGβ). Cells were incubated at 37° C. for about 72 hr. Cells relative density were measured by Alamar Blue method. Alamar Blue (Sigma) was prepared in PBS at concentration of 4 uM, added to the microplate at 1/10 volume of culture medium (final concentration 0.4 uM) and plates returned to the incubator. Fluorescence was read at Ex.=530 nm/Em.=590 nm after 2-4 hours at 37° C.

EGF = EGF (Homo sapiens, UniProt P01133); assay: 125I-EGF binding with BS3 cross-linking and SDS-PAGE; conditions: supernatant of transfected 293T cells, 5 nM 125I-EGF, BS3 cross-linking, SDS-PAGE
Sequence of EGF (P01133 971-1023 limits assumed): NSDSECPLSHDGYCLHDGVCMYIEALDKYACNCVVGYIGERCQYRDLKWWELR
Experimental: BS^3, a chemical crosslinker (Pierce) was added at the end of the binding assay to cross-link the bound molecules. Samples were separated on an SDS-PAGE gel and exposed to a film for detection.
as §3

[1] = molecular target: the molecule itself; assay: self-association by size exclusion chromatography (apparent over calculated molecular weight)
Experimental: This methodology permits simplified analysis of the ability of receptor ectodomains to associate as either homodimers or heterodimers. To perform molecular size exlusion analysis, eluted molecules were compared to reference standards. […] Smaller volumes elute in the retained volume of the column, while larger molecules elute in smaller volumes according to their increasing molecular mass.
Molecular size exclusion analysis was performed using a A TSK3000 size exclusion column (Tosoh Bioscience, Montgomeryville, Pa.) equilibrated with PBS at a flow rate of 0.7 ml/min. Gel filtration standards (BioRad, Hercules, Calif.) were used to calibrate the column. Their elution volumes and molecular weights were plotted. Elution volumes were determined for each unknown by injection of 30 μg of each molecule in PBS and their apparent molecular weights calculated. Flow was maintained over the column between injections. Molecular weights were determined using a Standard curve for molecular weight standards.

[2] = molecular target: T3, neuregulin-1 beta 1 (NRG1β1) (human, UniProt Q02297-6 177-241, limits assumed); assay: 125I-HRG (5 nM) cross-linking (BS3), normalised by anti-HER3 Western blot densitometry
T3 construct: also called HRG; heregulin
T3 sequence (looked up): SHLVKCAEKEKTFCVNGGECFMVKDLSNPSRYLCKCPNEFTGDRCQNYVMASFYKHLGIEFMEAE
Experimental: 1 mM of the BS₃ crosslinker was added at the end of the binding assay to cross-link the bound molecules. Binding reactions were separated on an SDS-PAGE gel. The protein gel was dried and exposed to a film for 2 and 6 hours.

[3] = Group 5, 38 mg/kg Iressa, group mean
[4] = Group 6, 75 mg/kg Iressa, group mean

Molecule: COc1cc2ncnc(Nc3ccc(F)c(Cl)c3)c2cc1OCCCN1CCOCC1 [Iressa, Gefitinib]
- tumor growth rate in comparison to the vehicle group (A431 s.c. tumor; 38 mg/kg Iressa (Group 5)): did not
- reduction of final tumor weight (A431 s.c. tumor; 75 mg/kg Iressa (Group 6)): 69%
- tumor growth rate in comparison to the vehicle group (A431 s.c. tumor; 75 mg/kg Iressa i.p. days 1-5 cycled weekly (Group 6)): significantly decreased
- Tumor volume (mm^3) Day 7 (A431 s.c. tumor; [3]): 51.2 mm^3
- Tumor volume (mm^3) Day 10 (A431 s.c. tumor; [3]): 79.4 mm^3
- Tumor volume (mm^3) Day 12 (A431 s.c. tumor; [3]): 108.8 mm^3
- Tumor volume (mm^3) Day 14 (A431 s.c. tumor; [3]): 152.6 mm^3
- Tumor volume (mm^3) Day 17 (A431 s.c. tumor; [3]): 220.6 mm^3
- Tumor volume (mm^3) Day 19 (A431 s.c. tumor; [3]): 259.6 mm^3
- Tumor volume (mm^3) Day 21 (A431 s.c. tumor; [3]): 396.9 mm^3
- Tumor volume (mm^3) Day 24 (A431 s.c. tumor; [3]): 477.0 mm^3
- Tumor volume (mm^3) Day 25 (A431 s.c. tumor; [3]): 491.1 mm^3
- Tumor volume (mm^3) Day 26 (A431 s.c. tumor; [3]): 510.1 mm^3
- Tumor weight (A431 s.c. tumor; Group 5, 38 mg/kg Iressa, final tumor weight, group mean): 0.267 g
- Tumor volume (mm^3) Day 7 (A431 s.c. tumor; [4]): 48.6 mm^3
- Tumor volume (mm^3) Day 10 (A431 s.c. tumor; [4]): 72.5 mm^3
- Tumor volume (mm^3) Day 12 (A431 s.c. tumor; [4]): 87.1 mm^3
- Tumor volume (mm^3) Day 14 (A431 s.c. tumor; [4]): 104.3 mm^3
- Tumor volume (mm^3) Day 17 (A431 s.c. tumor; [4]): 123.1 mm^3
- Tumor volume (mm^3) Day 19 (A431 s.c. tumor; [4]): 112.1# mm^3
- Tumor volume (mm^3) Day 21 (A431 s.c. tumor; [4]): 150.1# mm^3
- Tumor volume (mm^3) Day 24 (A431 s.c. tumor; [4]): 180.5# mm^3
- Tumor volume (mm^3) Day 25 (A431 s.c. tumor; [4]): 178.6# mm^3
- Tumor volume (mm^3) Day 26 (A431 s.c. tumor; [4]): 181.9# mm^3
- Tumor weight (g) (A431 s.c. tumor; Group 6, 75 mg/kg Iressa, final tumor weight, group mean): 0.095# g
- tumor size prior to termination (A431 tumor bearing mice; Iressa treatment groups (groups 2 and 3)): inhibition of tumor size
- adverse effects (A431 tumor bearing mice; i.p., 30 mg/kg RB200h, 75 mg/kg IRESSA, or 10 mg/kg RB200h with 38 mg/kg IRESSA, 12 days of dosing): No adverse effects

Molecule: HFD200: full-length HER2 ECD fused to Fc, SEQ ID NO:42
- binding of 125I-HRG (heregulin (HRG)): did not show any detectable
- binding of 125I-EGF (EGF): did not show any detectable
- binding of 125I-EGF (EGF; listed as HER2-650/Fc): no binding

Molecule: HFD400: full-length HER4 ECD fused to Fc, SEQ ID NO:48
- binding of 125I-HRG (heregulin (HRG)): bound
- binding of 125I-HRG (heregulin (HRG); listed as HER4-650/Fc): binds
- binding of 125I-EGF (EGF): no binding

B1: HF410T (HER4-485) (receptor)
chain: QSVCAGTENKLSSLSDLEQQYRALRKYYENCEVVMGNLEITSIEHNRDLSFLRSVREVTGYVLVALNQFRYLPLENLRIIRGTKLYEDRYALAIFLNYRKDGNFGLQELGLKNLTEILNGGVYVDQNKFLCYADTIHWQDIVRNPWPSNLTLVSTNGSSGCGRCHKSCTGRCWGPTENHCQTLTRTVCAEQCDGRCYGPYVSDCCHRECAGGCSGPKDTDCFACMNFNDSGACVTQCPQTFVYNPTTFQLEHNFNAKYTYGAFCVKKCPHNFVVDSSSCVRACPSSKMEVEENGIKMCKPCTDICPKACDGIGTGSLMSAQTVDSSNIDKFINCTKINGNLIFLVTGIHGDPYNAIEAIDPEKLNVFRTVREITGFLNIQSWPPNMTDFSVFSNLVTIGGRVLYSGLSLLILKQQGITSLQFQSLKEISAGNIYITDNSNLCYYHTINWTTLFSTINQRILESRGPFEQKLISEEDLNMHTGHHHHHH
- M. Wt. (ap):M. Wt. [1]: 1.98

B2: HER3-621, full-length HER3 ECD (receptor)
chain: SEVGNSQAVCPGTLNGLSVTGDAENQYQTLYKLYERCEVVMGNLEIVLTGHNADLSFLQWIREVTGYVLVAMNEFSTLPLPNLRVVRGTQVYDGKFAIFVMLNYNTNSSHALRQLRLTQLTEILSGGVYIEKNDKLCHMDTIDWRDIVRDRDAEIVVKDNGRSCPPCHEVCKGRCWGPGSEDCQTLTKTICAPQCNGHCFGPNPNQCCHDECAGGCSGPQDTDCFACRHFNDSGACVPRCPQPLVYNKLTFQLEPNPHTKYQYGGVCVASCPHNFVVDQTSCVRACPPDKMEVDKNGLKMCEPCGGLCPKACEGTGSGSRFQTVDSSNIDGFVNCTKILGNLDFLITGLNGDPWHKIPALDPEKLNVFRTVREITGYLNIQSWPPHMHNFSVFSNLTTIGGRSLYNRGFSLLIMKNLNVTSLGFRSLKEISAGRIYISANRQLCYHHSLNWTKVLRGPTEERLDIKHNRPRRDCVAEGKVCDPLCSSGGCWGPGPGQCLSCRNYSRGGVCVTHCNFLNGEPREFAHEAECFSCHPECQPMGGTATCNGSGSDTCAQCAHFRDGPHCVSSCPHGVLGAKGPIYKYPDVQNECRPCHENCTQGCKGPELQDCLGQTLVLIGKTLESRGPFEQKLISEEDLNMHTGHHHHHH
notes: also called HF300; HF300T
- M. Wt. (ap):M. Wt. [1]: 2.66
- binding relative to the other derivatives tested [2]: ~10%

Now from value to molecule, other results behind:

- maximal inhibition of HER2 phosphorylation (HER2): about 55%
- maximal inhibition of HER3 phosphorylation (HER3; MCF7/HER2 cells): about 55%
Molecule: HF210T: truncated HER2 ECD, residues 1-573, SEQ ID NO:16

- maximal inhibition of HER2 phosphorylation (HER2): about 35%
- maximal inhibition of HER3 phosphorylation (HER3; MCF7/HER2 cells): about 35%
Molecule: HF220T: truncated HER2 ECD, residues 1-508, SEQ ID NO:14

- binding of HRG as compared to the other derivatives tested (heregulin (HRG); normalized by anti-HER3 Western blot densitometry): about 10%
- maximal inhibition of HER3 phosphorylation (HER3; MCF7 cells): about 38%
- IC50 (HER3; MCF7 cells): 48 nM
- maximal inhibition of HER3 phosphorylation (HER3; SK-BR3 cells): about 55%
Molecule: HF300T: full-length HER3 ECD, residues 1-621, SEQ ID NO:26

- binding of 125I-HRG (heregulin (HRG)): equivalent binding
- maximal inhibition of HER3 phosphorylation (HER3; MCF7 cells): about 78%
- IC50 (HER3; MCF7 cells): 39 nM
- maximal inhibition of HER3 phosphorylation (HER3; SK-BR3 cells): about 75%
Molecule: HF310T: truncated HER3 ECD, residues 1-500, SEQ ID NO:20
- inhibition of proliferation (MCF7 cells): about 95%

- binding of 125I-HRG (heregulin (HRG)): equivalent binding; also recorded: bound
- binding of 125I-HRG (heregulin (HRG); listed as HER3-621/Fc): binds
Molecule: HFD300: full-length HER3 ECD (1-621) fused to Fc, SEQ ID NO:46; homodimer

- binding of 125I-HRG (heregulin (HRG)): equivalent binding
Molecule: HFD310: truncated HER3 ECD (1-500) fused to Fc, SEQ ID NO:44
